{
  "source": "paper PMC9737734",
  "about": "“Phytochemical investigation of Ludwigia adscendens subsp. diffusa aerial parts in context of its biological activity” (BMC Chemistry, 2022)",
  "tested_on": "PC-3 cells (human prostate cancer cell line)",
  "experiment": "Cytotoxic activity, MTT cell viability assay against PC-3 cell line",
  "assay_type": "cell-based",
  "settings": "read-out: Cytotoxcity activity IC50",
  "method": "Cytotoxic activity of L. adscendens aerial part fractions were tested in vitro using MTT cell viability assay as previously described. Briefly, in each well plate 100 µL of fresh culture RPMI 1640 medium without phenol red then 10 µL of the 12 mM MTT stock solution (5 mg of MTT in 1 mL of PBS) were added to each well. An 85 µL aliquot of the incubated media was replaced by 50 µL of DMSO and incubated at 37 °C for 10 min. The optical density was measured at 590 nm with the microplate reader to determine the number of viable cells and the percentage of viability was calculated as the percentage of cell survival was calculated as follows: Surviving fraction=O.D.treated cells/O.D.control cells∗100",
  "data": [
    {"smiles": "COc1cccc2c1C(=O)c1c(O)c3c(c(O)c1C2=O)C[C@@](O)(C(=O)CO)C[C@@H]3O[C@H]1C[C@H](N)[C@H](O)[C@H](C)O1", "note": "[Doxorubicin]", "values": [
      {"measurement": "IC50", "result": "34.9 ± 5.21", "unit": "µg/mL"}
    ]}
  ]
}
